Experimental data from patent publication US20220193240A1, “TRIGGERABLE HYDROGEL COMPOSITIONS AND RELATED METHODS” (Massachusetts Institute of Technology, priority 2016, published 2022).

Assays:
[1] = pH 7.4
Method: Permeability measurement. The measurement of permeability of TTHs was carried out on a Franz diffusion cell using a TTH membrane (thickness, 3 mm). […] At each time point, 0.4 mL was sampled from the acceptor compartment and 0.4 mL fresh PBS was supplemented through the sampling port of the cell.

[2] = In vivo pharmacokinetics of lumefantrine with model fit; parameters: species or system Yorkshire pig
Method: In vivo studies. All animal experiments were performed in accordance with protocols approved by the Committee on Animal Care at MIT. A large animal model, 45-55 kg Yorkshire pigs, was chosen as its gastric anatomy similar to humans and is widely used in evaluating devices in the GI space. Pigs were sedated with Telazol (tiletamine/zolazepam) 5 mg kg−1, xylazine 2 mg kg−1, and atropine 0.05 mg kg−1, and/or isoflurane (1˜3% inhaled), and an endoscopic overtube (US Endoscopy) was placed in the esophagus under endoscopic visual guidance during esophageal intubation. To evaluate the TTH for its ability to be triggered to dissolve into solution with biocompatible agents, the retrievable TTH strips and methyl blue-labeled large TTH sheets were administered via the overtube into the stomach. PBS (0.5 L) containing EDTA (40 mM), GSH (20 mM), and NaHCO3 (60 mM) was administered via the overtube after the gastric placement of the TTH samples. Intra-gastric endoscopy videography was used for image capture of the dissolution of the TTH sheets. The TTH strips were retrieved endoscopically after 1 h in the gastric cavity. Pigs that were not administered EDTA/GSH and therefore the strips and sheets were only exposed to gastric fluid were used as control experiments. To assess TTHs for the ability to achieve gastric retention, radiopaque barium sulfate-labeled capsule-like TTHs were administered via the overtube into the gastric cavity (one TTH device per pig). Radiographs were performed every 48-72 h to monitor the integrity and transit of the devices as well as any radiographic evidence of bowel obstruction or perforation. […] During the evaluation of the TTH systems for gastric residence and drug delivery the animals were monitored twice daily for any signs of abnormal feeding and stooling patterns. Additionally the animals were monitored clinically for any evidence of gastrointestinal obstruction as well as radiographically every 48-72 hours for evidence of obstruction and/or perforation. […]

| permeability through the TTH [1] [mL h·cm−2] | clearance from blood ([2]; after a single administration) | absorption rate constant ([2]; first order model fit) [day⁻¹] | elimination rate constant ([2]; free drug, model fit, estimated) [day⁻¹] | Compound |
| --- | --- | --- | --- | --- |
| 0.082 |  |  |  | C[S+](C)[O-] [dimethyl sulfoxide] |
|  | rapidly cleared from blood | 1.17 | 1.17 | CCCCN(CCCC)CC(O)c1cc(Cl)cc2c1-c1ccc(Cl)cc1/C2=C/c1ccc(Cl)cc1 (stereo not shown) [free lumefantrine, lumefantrine] |
